# Like-named read-outs stand apart in the source and are kept apart here.
# Assays:
# [1] = system: Drosophila melanogaster flies of the Oregon wild-type strain; assay: Adult fly mortality screen, wild-type flies; assay type: in vivo; conditions: 100 ppm in 10% sucrose via cotton wick, 72 hours post-treatment
# Method: (§1) Ten adult Drosophila melanogaster flies (5 males and 5 females) of the Oregon wild-type strain and ten adult flies of a spinosyn-resistant strain were used per treatment. Two sets (of 10 flies) were set-up per treatment. Stocks of spinosyn A and a 21-butenyl-spinosyn analog were formulated at 1000 ppm in 2:1 acetone:water and then diluted to the required concentration in 10% sucrose. Vials received 500 ul of treatment (or solvent for controls) via cotton wicks (approximately ¼ inch) and flies were added to each vial and capped with a cotton plug. Flies were monitored over 72 hours post-treatment while being maintained at room-temperature with a 12:12 light:dark cycle.
# (§2) In addition, the spinosyn A resistant flies were >100-fold resistant (based on LD50) to the new class of spinosyns, represented by the 21-butenyl spinosyns.
# [2] = system: Drosophila melanogaster flies of a spinosyn-resistant strain; assay: Adult fly mortality screen, spinosyn-resistant flies; assay type: in vivo; conditions: for mortality: 100 ppm in 10% sucrose via cotton wick, 72 hours post-treatment, spinosyn-resistant flies; for resistance of spinosyn A resistant flies compared to wild-type flies (based on LD50): dose-response data, resistant vs wild-type flies
# Method: as §1, §2
# [3] = system: Dα6 and C. elegans ric3 expressed in D.Mel-2 cells; assay: [3H]DHSA radioligand displacement binding in D.Mel-2 cells; design: species or system Drosophila melanogaster
# Method: D.Mel-2 cells were seeded into 75 cm^2 flasks at 1.9×10^7 cells/flask in Drosophila SFM containing antibiotic/antimicotic and incubated overnight at 27° C. The transfection mix was prepared in 12×75 mm polystyrene tubes by mixing 1630 μl sterile water, 40 μg pIB/V5-HisA/ric3, 40 μg pIB/V5-HisA/30D and 250 μl CellFectin. The reagents were mixed gently and incubated at room temp for 15 minutes. While the transfection mix was incubating, the cells were washed with 10 ml fresh Drosophila SFM without antibiotics; this media was then removed from the cells and replaced with 6 ml fresh Drosophila SFM without antibiotics. To the transfection mix was added 4 ml Drosophila SFM without antibiotics and this was then transferred to the flask. The reagents were gently mixed by pipetting up and down and then incubated overnight at 27° C.
# D.Mel-2 cells were purchased from Invitrogen (Carlsbad, Calif.) and grown in disposable 125 ml shake flasks using 50 ml volume. Cells were subcultured to 3×10^5 cells/ml twice per week in Drosophila SFM containing 5 ml/L Antibiotic-Antimycotic (100×) (Gibco, Carlsbad, Calif.). D.Mel-2 cells were seeded into a 12-well plate at a cell density of 5×10^5 cells/well and incubated overnight at 27° C. In a 12×75 mm polystyrene tube 6 μg pIB/V5-HisA/ric3, 82 μl sterile H2O and 12 μl CellFectin (Invitrogen, Carlsbad, Calif.) were added. The sample was mixed gently and incubated at room temperature for 15 minutes. While the transfection mix was incubating, media from one well of cells was removed and replaced with 1 ml fresh media without antibiotics. After 15 minutes, the media was removed from cells. To this transfection mix, 0.5 ml media (no antibiotics) was added. This solution was then added to the cells. The mixture was incubated for 48 hrs at 27° C. After 48 hrs, the cells were scraped from the plate using a cell scraper and split into 4 wells of a 6-well plate each containing 2 ml Drosophila SFM with antibiotics. Cells were allowed to attach for 1 hr at 27° C.; the media was removed and replaced with 2 ml fresh media containing 25 μg/ml Blasticidin S (Invitrogen, Carlsbad, Calif.). Cells were incubated at 27° C. for 5 days. After 5 days, the cells were scraped loose from the wells and combined into one tube. Cells were spun down at 600 rpm in a tabletop centrifuge; the media was removed and the cells were resuspended into a 50 ml shake culture in fresh Drosophila SFM containing 25 μg/ml Blasticidin S. The cells were incubated at 27° C./140 rpm. Cells were subcultured twice weekly back to cell density of 3×10^5 cells/ml. After 4 weeks the selection was cut back to 10 μg/ml Blasticidin S. After 3 months of growth under selection, a 12 well plate was seeded at 5×10^5 cells/well and cells were incubated over night at 27° C. The following reagents were added to each of three 12×75 mm polystyrene tubes: 2 μg pMT/V5-HisA/30D, 0.15 μg pCoHygro (Invitrogen, Carlsbad, Calif.) (a […] ratio of expression plasmid:selection plasmid), 89 μl sterile H2O and 12 μl CellFectin. The samples were mixed gently and incubated at room temp for 15 minutes and then transfected as described above. After 24 hrs, the media containing transfection mix was removed and replaced with 1 ml fresh media containing antibiotics. The incubation was continued at 27° C. for another 24 hrs. Cells were scraped loose from the 12-well plate (3 wells) and split into 2, 6-well plates. Cells were allowed to attach for 6 hours at which point, the media was replaced with 2 ml/well fresh media containing 200, 150, 100 or 50 μg/ml hygromycin B. The incubation was continued at 27° C.; every 4-5 days, the media was replaced with media containing hygromycin every 4-5 days. After 2 weeks of selection in the plates, the cells from the 200 μg/ml selection, were scraped loose and then gently pelleted and resuspended in 25 ml fresh media containing 200 μg/ml hygromycin B and then placed into a 125 ml shake flask.
# [4] = system: 30D (nicotinic acetylcholine receptor alpha-6 subunit); assay type: cell-based, Drosophila melanogaster; also: key: '−' indicates a negligible current was induced; '+' indicates a small amplitude current; '++' indicates a moderate amplitude current; '++++' indicates a large amplitude current
# Method: (§3) Xenopus laevis (Xenopus 1, Ann Arbor, Mich.; Nasco, Fort Atkinson, Wis.) were anesthetized by bathing in a solution of 2 g/l tricaine methane sulfonate, and oocytes were surgically removed from the frog and placed in a culture solution that consisted of 96 mM NaCl, 2 mM KCl, 1.8 mM CaCl2, 1 mM MgCl2, 5 mM HEPES, 2.5 mM Na-pyruvate, 100 units/ml penicillin, and 0.1 mg/ml streptomycin, pH 7.6. Oocytes were dispersed in a nominally zero Ca^2+ protease treatment solution to defolliculate the oocytes. The protease treatment solution consisted of either 88 mM NaCl, 2.5 mM KCl, 1 mM MgCl2, 5 mM HEPES, 2.5 mM Na-pyruvate, 100 units/ml penicillin, and 0.1 mg/ml streptomycin, pH 7.6 plus 1.5 mg/ml collagenase IA (Sigma Chemical Co., St. Louis, Mo.). After isolation, the oocytes were thoroughly rinsed and returned to the above Ca^2+ containing culture solution and stored at 18° C.
# (§4) Synthesis of cRNA was performed as follows: Plasmid DNA was linearized with one of the following restriction enzymes; Not I, Xho I or Nhe I. The linearized DNA was subsequently used as template for cRNA synthesis using T7 mMessage mMachine kit (Ambion, Austin, Tex.) following the manufacturer's instructions.
# (§5) Micropipettes for injection of cRNA into Xenopus oocytes were pulled on a DMZ-Universal Puller (Zeitz-Instruments, München, Germany). The cRNA to be injected was drawn up into the micropipette with negative pressure. Approximately 10-50 ng of cRNA was injected into the oocytes by applying positive pressure using a Nanoject II oocyte injector (Drummond Scientific Co., Broomall, Pa.). Nucleic acid was introduced into the oocytes as follows: (1) nicotinic acetylcholine receptor alpha-6 subunit subunit (30D) (2) nicotinic alpha-7 receptor subunit (34E); (3) nicotinic acetylcholine receptor alpha-6 subunit and C. elegans ric-3 (30D and ric-3); (4) nicotinic alpha-7 receptor subunit and C. elegans ric-3 (34E and ric-3); (5) nicotinic acetylcholine receptor alpha-6 subunit and nicotinic alpha-7 receptor subunit (30D and 34E); and, (6) nicotinic acetylcholine receptor alpha-6 subunit, nicotinic alpha-7 receptor subunit and C. elegans ric-3 (30D, 34E and ric-3).
# (§6) The control external solution for voltage clamp recordings consisted of 88 mM NaCl, 1 mM KCl, 0.41 mM CaCl2, 2.4 mM NaHCO3, 0.3 mM Ca(NO3)2, 0.82 mM MgSO4·7 H2O, and 15 mM HEPES, pH 7.6. The recording chamber was continuously perfused with a gravity-fed perfusion system. Nicotine (1 mM) was added to the external solution and then added to the perfusate for 30 seconds. Then, nicotine was washed from the external solution a minimum of 10 minutes. Thereafter, spinosyn A was dissolved in dimethylsulfoxide (DMSO) and then dissolved in the external solution at a final concentration of 10 μM and then added to the perfusate for 60 seconds. Then, the spinosyn A was washed from the external solution. The final concentration of DMSO never exceeded 0.1% (v/v).
# 34E/ric-3 = assay type: cell-based, Drosophila melanogaster; also: key: '−' indicates a negligible current was induced; '+' indicates a small amplitude current; '++' indicates a moderate amplitude current; '++++' indicates a large amplitude current
# Method: as §3, §4, §5, §6
# 30D/ric-3 = assay type: cell-based, Drosophila melanogaster; conditions: −60 mV, peak current
# Method: as §3, §4, §5, §6
# [5] = system: 34E (nicotinic acetylcholine receptor alpha-5 subunit); assay type: cell-based, Drosophila melanogaster; also: key: '−' indicates a negligible current was induced; '+' indicates a small amplitude current; '++' indicates a moderate amplitude current; '++++' indicates a large amplitude current
# Method: as §3, §4, §5, §6
# Dα6-nicotinic receptor = assay type: binding, Drosophila melanogaster
# Method: Xenopus oocytes were injected as previously described for the electrophysiological assay and were used intact for binding assays.
# Two main radioligands were used in binding assays: the conventional α7 radioligand, [^3H]methyllycaconitine (MLA) and [^3H]dihydrospinosyn A (DHSA). For both radioligands, the Binding Buffer used consisted of 10 mM sodium phosphate (7.2-7.4). […] For Xenopus oocyte binding assays, oocytes were pooled (2-5 oocytes) and transferred to 1 ml Binding Buffer. This was followed by gently aspirating the Binding Buffer and replacing with fresh Binding Buffer twice, to wash out any residual oocyte bathing media. The final volume of buffer added to each pool of oocytes was 50-100 μl. […] Subsequent dilutions were made in Binding Buffer. The final concentration of solvent was maintained at less than 0.1% in each well. 25 μl of unlabeled competing compounds were added to the cell suspensions or oocytes. Cells or cell extracts were pre-incubated with compounds for 15-30 minutes, at 10° C. (for [^3H]DHSA) and room-temperature for [^3H]MLA. The samples were gently shaken using a plate shaker. […] Filter mats were dried in an oven at 60° C. and the radioactivity from samples was counted for three minutes with a Wallac MicroBeta Counter (Wallac, Conn.) using Meltilex solid-scintillant (PerkinElmer, Finland). […]
# 34E/30D = assay type: cell-based, Drosophila melanogaster; design: key to the marks not given beside the values; conditions: −60 mV, peak current
# Method: as §3, §4, §5
# as §6, with “Then, the spinosyn A was washed from the external solution. The final concentration of DMSO never exceeded 0.1% (v/v).” left out
# 34E/30D/ric-3 = assay type: cell-based, Drosophila melanogaster; design: key to the marks not given beside the values; conditions: −60 mV, peak current; as to Spinosyn A Response: key: '−' indicates a negligible current was induced; '+' indicates a small amplitude current; '++' indicates a moderate amplitude current; '++++' indicates a large amplitude current
# Method: as §3, §4, §5
# as §6, with “Then, the spinosyn A was washed from the external solution. The final concentration of DMSO never exceeded 0.1% (v/v).” left out
# [6] = D.Mel-2 cells expressing Dα6 and C. elegans ric3
# [7] = spinosyn A 10 μM for 60 seconds
compound,measurement,setting,value
21-butenyl spinosyn,mortality,[1],all wild-type flies exhibited mortality
same,mortality,[2],no significant mortality
same,resistance of spinosyn A resistant flies compared to wild-type flies (based on LD50),[2],> 100 fold
"CCN1C[C@]2(COC(=O)c3ccccc3N3C(=O)C[C@H](C)C3=O)CC[C@H](OC)[C@@]34[C@@H]5C[C@H]6[C@H](OC)[C@@H]5[C@](O)(C[C@@H]6OC)[C@@](O)([C@@H](OC)[C@H]23)[C@@H]14 [MLA, methyllycaconitine]",displacement of [3H]DHSA binding,[3]; [6],can be demonstrated at higher concentrations
same,overall affinity for this receptor complex,"[3]; [3H]DHSA binding assay, D.Mel-2 cells",relatively poor
"CN1CCCC1c1cccnc1 (stereo not shown) [Nicotine, nicotine]",displacement of [3H]DHSA binding,[3]; [6],displacement
same,Nicotine Response,[4],−
same,Nicotine Response,34E/ric-3,+
same,Nicotine Response,30D/ric-3; nicotine 1 mM for 30 seconds,+
same,Nicotine Response,[5],+
same,% Displacement of Total Binding,Dα6-nicotinic receptor,72%
same,Nicotine Response,34E/30D; nicotine 1 mM for 30 seconds,++
same,Nicotine Response,34E/30D/ric-3; nicotine 1 mM for 30 seconds,++++
"CC[C@H]1CCC[C@H](O[C@H]2CC[C@H](N(C)C)[C@@H](C)O2)[C@@H](C)C(=O)C2=C[C@@H]3[C@@H](C=C[C@@H]4C[C@@H](O[C@@H]5O[C@@H](C)[C@H](OC)[C@@H](OC)[C@H]5OC)C[C@@H]34)[C@@H]2CC(=O)O1 [Spinosyn A, spinosyn A]",displacement of [3H]DHSA binding,[3]; [6],significant displacement
same,mortality,[1],all wild-type flies exhibited mortality
same,Spinosyn A Response,"[4]; spinosyn A 10 μM for 60 seconds, oocytes clamped to −60 mV, peak current, 30D",−
same,Spinosyn A Response,"34E/ric-3; spinosyn A 10 μM for 60 seconds, −60 mV, peak current, 34E/ric-3",−
same,Spinosyn A Response,30D/ric-3; [7],+
same,Spinosyn A Response,"[5]; spinosyn A 10 μM for 60 seconds, −60 mV, peak current, 34E",−
same,% Displacement of Total Binding,"Dα6-nicotinic receptor; 10 μM, [3H]MLA, intact Xenopus oocytes 3 days post-injection with Dmα6",72%
same,Spinosyn A Response,34E/30D; [7],++
same,Spinosyn A Response,34E/30D/ric-3; [7],++++
same,mortality,[2],no significant mortality
same,resistance of spinosyn A resistant flies compared to wild-type flies (based on LD50),[2],at least 100 fold
CN1[C@@H]2CC[C@H]1C[C@@H](OC(=O)C(CO)c1ccccc1)C2 (stereo partly shown) [atropine],displacement of [3H]DHSA binding,[3],not
C[N+](C)(C)CCOC(N)=O.[Cl-] [carbamylcholine],displacement of [3H]DHSA binding,[3]; [6],did not significantly displace
CC[C@H]1CCC[C@H](O[C@H]2CC[C@H](N(C)C)[C@@H](C)O2)[C@@H](C)C(=O)C2=C[C@H]3[C@@H]4C[C@H](O[C@@H]5O[C@@H](C)[C@H](OC)[C@@H](OC)[C@H]5OC)C[C@H]4CC[C@H]3[C@@H]2CC(=O)O1 [dihydrospinosyn A],displacement of [3H]DHSA binding,[3]; [6],significant displacement
Clc1ccc(C2CC3CCC2N3)cn1 (stereo not shown) [epibatidine],displacement of [3H]DHSA binding,[3]; [6],did not significantly displace
NS(=O)(=O)c1cc(C(=O)O)c(NCc2ccco2)cc1Cl [furosemide],displacement of [3H]DHSA binding,[3]; [6],No significant displacement
O=[N+]([O-])NC1=NCCN1Cc1ccc(Cl)nc1 [imidacloprid],displacement of [3H]DHSA binding,[3]; [6],did not significantly displace
CN1[C@@H](CC(=O)c2ccccc2)CCC[C@H]1C[C@H](O)c1ccccc1 [lobeline],displacement of [3H]DHSA binding,[3]; [6],did not significantly displace
C[C@@H]1O[C@H](C[N+](C)(C)C)C[C@H]1O [muscarine],displacement of [3H]DHSA binding,[3]; [6],not
CC[C@H]1CCC[C@H](O)[C@@H](C)C(=O)C2=C[C@@H]3[C@@H](C=C[C@@H]4C[C@@H](O[C@@H]5O[C@@H](C)[C@H](OC)[C@@H](OC)[C@H]5OC)C[C@@H]34)[C@@H]2CC(=O)O1 [pseudoagylcone of spinosyn A],displacement of [3H]DHSA binding,[3]; [6],Nor was there significant displacement
C[C@H](O)[C@H](O)[C@@H](O)[C@@H](O)C=O [rhamnose],displacement of [3H]DHSA binding,[3]; [6],No significant displacement
CN1COCN(Cc2cnc(Cl)s2)/C1=N\[N+](=O)[O-] [thiamethoxam],displacement of [3H]DHSA binding,[3]; [6],did not significantly displace
alpha-bungarotoxin,displacement of [3H]DHSA binding,[3],can be demonstrated at higher concentrations
same,overall affinity for this receptor complex,[3],relatively poor

# Reference: patent publication US20060269995A1, “Novel assays utilizing nicotinic acetylcholine receptor subunits” (priority 2005, published 2006)
